From paper PMC7490411 (Signal Transduction and Targeted Therapy, 2020)

What was measured:
ZAK = assay: KINOMEscan; format: binding; details: 1000 nM
MKNK2 = assay: KINOMEscan; format: binding; details: 1000 nM
MAK = assay: KINOMEscan; format: binding; details: 1000 nM
TXK = target: T1, TXK (Homo sapiens, UniProt P42681); assay: KINOMEscan; format: binding; details: 1000 nM
T1 construct: purchased Invitrogen (Carlsbad, CA, USA)

PKAC-alpha = assay: KINOMEscan; format: binding; details: 1000 nM
LATS2 = assay: KINOMEscan; format: binding; details: 1000 nM
PFTAIRE2 = assay: KINOMEscan; format: binding; details: 1000 nM
IKK-epsilon = assay: KINOMEscan; format: binding; details: 1000 nM
MARK1 = assay: KINOMEscan; format: binding; details: 1000 nM
FLT3(ITD,F691L) = assay: KINOMEscan; format: binding; details: 1000 nM
CAMK1D = assay: KINOMEscan; format: binding; details: 1000 nM
MAP4K3 = assay: KINOMEscan; format: binding; details: 1000 nM
STK39 = assay: KINOMEscan; format: binding; details: 1000 nM
EPHB4 = assay: KINOMEscan; format: binding; details: 1000 nM
NEK4 = assay: KINOMEscan; format: binding; details: 1000 nM
DDR2 = assay: KINOMEscan; format: binding; details: 1000 nM
[1] = system: RSK3(Kin.Dom.2-C-terminal); assay: KINOMEscan; format: binding; details: 1000 nM
PAK7 = assay: KINOMEscan; format: binding; details: 1000 nM
SK-OV-3 cells = assay: NK-cell-mediated ADCC, LDH release cytotoxicity assay, Herceptin; format: cell-based, human
Method: The cytotoxicity of NK cells was measured using the CyQUANT™ LDH Cytotoxicity Assay Kit (Invitrogen™, #C20300) according to the manufacturer’s instructions. Briefly, enriched NK cells (6 × 10^5 /ml) were cultured with the same volume of Mino cell and SK-OV-3 cell (1-2 × 10^4 /ml) in a 96-well plate for 4 h with Rituximab and Herceptin (10 μg/mL) and CHMFL-BTK-85 or PCI32765 at 37°C in a humidified CO2 incubator prior to removal of the supernatant for lactate dehydrogenase (LDH) release measurements. Calculate % Cytotoxicity by using the following formula: %Cytotoxicity = (Compound-treated LDH activity-Spontaneous LDH activity)/(Maximum LDH activity-Spontaneous LDH activity)*100.

EPHA4 = assay: KINOMEscan; format: binding; details: 1000 nM
CIT = assay: KINOMEscan; format: binding; details: 1000 nM
PIK4CB = assay: KINOMEscan; format: binding; details: 1000 nM
PRKCE = assay: KINOMEscan; format: binding; details: 1000 nM
CHEK1 = assay: KINOMEscan; format: binding; details: 1000 nM
PDPK1 = assay: KINOMEscan; format: binding; details: 1000 nM
ABL2 = assay: KINOMEscan; format: binding; details: 1000 nM
FLT3(N841I) = assay: KINOMEscan; format: binding; details: 1000 nM
AMPK-alpha1 = assay: KINOMEscan; format: binding; details: 1000 nM
MLCK = assay: KINOMEscan; format: binding; details: 1000 nM
HIPK2 = assay: KINOMEscan; format: binding; details: 1000 nM
EGFR(L858R,T790M) = assay: KINOMEscan; format: binding; details: 1000 nM
AKT1 = assay: KINOMEscan; format: binding; details: 1000 nM
CAMKK1 = assay: KINOMEscan; format: binding; details: 1000 nM
ERK2 = assay: KINOMEscan; format: binding; details: 1000 nM
STK33 = assay: KINOMEscan; format: binding; details: 1000 nM
CTK = assay: KINOMEscan; format: binding; details: 1000 nM
PHKG1 = assay: KINOMEscan; format: binding; details: 1000 nM
IKK-beta = assay: KINOMEscan; format: binding; details: 1000 nM
MEK6 = assay: KINOMEscan; format: binding; details: 1000 nM
BRK = assay: KINOMEscan; format: binding; details: 1000 nM
ERK4 = assay: KINOMEscan; format: binding; details: 1000 nM
MEK4 = assay: KINOMEscan; format: binding; details: 1000 nM
[2] = system: REC-1 cell (MCL)-inoculated xenograft; assay: REC-1 cell subcutaneous xenograft tumor model; format: in vivo; details: for TGI: REC-1 xenograft, 14 days
PRKCQ = assay: KINOMEscan; format: binding; details: 1000 nM
FLT3(R834Q) = assay: KINOMEscan; format: binding; details: 1000 nM
[3] = system: TMD8 cell (DLBCL)-inoculated xenograft; assay: TMD8 cell subcutaneous xenograft tumor model; format: in vivo
TIE2 = assay: KINOMEscan; format: binding; details: 1000 nM
EGFR(E746-A750del) = assay: KINOMEscan; format: binding; details: 1000 nM
EGFR(S752-I759del) = assay: KINOMEscan; format: binding; details: 1000 nM
[4] = system: ABL1(E255K)-phosphorylated; assay: KINOMEscan; format: binding; details: 1000 nM
AMPK-alpha2 = assay: KINOMEscan; format: binding; details: 1000 nM

T1 sequence (P42681 whole entry): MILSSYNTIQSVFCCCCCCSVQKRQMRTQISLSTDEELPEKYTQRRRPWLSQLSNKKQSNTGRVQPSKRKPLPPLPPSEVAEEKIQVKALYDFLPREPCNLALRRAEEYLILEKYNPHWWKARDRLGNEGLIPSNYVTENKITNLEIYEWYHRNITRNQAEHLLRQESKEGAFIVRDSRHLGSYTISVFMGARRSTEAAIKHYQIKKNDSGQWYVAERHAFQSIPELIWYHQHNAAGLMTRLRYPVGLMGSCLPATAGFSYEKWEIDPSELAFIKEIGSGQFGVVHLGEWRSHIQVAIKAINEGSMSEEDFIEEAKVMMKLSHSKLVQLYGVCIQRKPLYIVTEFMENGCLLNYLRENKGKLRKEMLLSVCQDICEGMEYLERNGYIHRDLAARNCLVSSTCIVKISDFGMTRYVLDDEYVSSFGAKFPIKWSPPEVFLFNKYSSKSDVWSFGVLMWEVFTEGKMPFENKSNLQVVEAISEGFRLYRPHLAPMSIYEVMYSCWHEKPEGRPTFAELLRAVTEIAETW

In the case of C=CC(=O)Nc1cc(Nc2cc(-c3cccc(NC(=O)c4cc5c(s4)CCCC5)c3C)cn(C)c2=O)ccc1N1CCN(CC)CC1 [CHMFL-BTK-85], the “Percent Control” value (ZAK) is reported as 99%, the “Percent Control” value (MKNK2) is reported as 100% and the “Percent Control” value (MAK) is reported as 89%. For the same compound, the percent of control binding at 1 µM (TXK) was 82%, the “Percent Control” value (PKAC-alpha) was 100% and the “Percent Control” value (LATS2) was 100%. The “Percent Control” value (PFTAIRE2) was 99%, the “Percent Control” value (IKK-epsilon) was 53% and the “Percent Control” value (MARK1) was 100%. The “Percent Control” value (FLT3(ITD,F691L)) was 77%, the “Percent Control” value (CAMK1D) was 100% and the “Percent Control” value (MAP4K3) was 97%. For the same compound, the “Percent Control” value (STK39) was 100%, the “Percent Control” value (EPHB4) was 67% and the “Percent Control” value (NEK4) was 100%. For the same compound, the “Percent Control” value (DDR2) was 100%, the “Percent Control” value [1] was 79% and the “Percent Control” value (PAK7) was 82%. For the same compound, the “effect on antibody-dependent NK-cell-mediated cytotoxicity (ADCC)” value (SK-OV-3 cells) was “did not affect”, the “Percent Control” value (EPHA4) was 100% and the “Percent Control” value (CIT) was 95%. The “Percent Control” value (PIK4CB) was 100%, the “Percent Control” value (PRKCE) was 93% and the “Percent Control” value (CHEK1) was 79%. For the same compound, the “Percent Control” value (PDPK1) was 77%, the “Percent Control” value (ABL2) was 88% and the “Percent Control” value (FLT3(N841I)) was 83%. For the same compound, the “Percent Control” value (AMPK-alpha1) was 100%, the “Percent Control” value (MLCK) was 100% and the “Percent Control” value (HIPK2) was 100%. For the same compound, the “Percent Control” value (EGFR(L858R,T790M)) was 99%, the “Percent Control” value (AKT1) was 80% and the “Percent Control” value (CAMKK1) was 75%. For the same compound, the “Percent Control” value (ERK2) was 91%, the “Percent Control” value (STK33) was 90% and the “Percent Control” value (CTK) was 99%. The “Percent Control” value (PHKG1) was 94%, the “Percent Control” value (IKK-beta) was 100% and the “Percent Control” value (MEK6) was 78%. For the same compound, the “Percent Control” value (BRK) was 21%, the “Percent Control” value (ERK4) was 100% and the “Percent Control” value (MEK4) was 100%. The TGI ([2]; 100 mg/kg/day) was 65%, the TGI ([2]; 150 mg/kg/day) was 79% and the “toxicity signs in REC-1 xenograft model” value ([2]; mouse, 100 mg/kg/day) was “without obvious signs of toxicity”. The “Percent Control” value (PRKCQ) was 80%, the “Percent Control” value (FLT3(R834Q)) was 100% and the TGI ([3]; TMD8 xenograft, 100 mg/kg/day, 28 days) was 96%. For the same compound, the “toxicity signs in TMD8 xenograft model” value ([3]; mouse, body weight monitoring) was “no weight loss or any other obvious signs of toxicity”, the “Percent Control” value (TIE2) was 84% and the “Percent Control” value (EGFR(E746-A750del)) was 100%. For the same compound, the “Percent Control” value (EGFR(S752-I759del)) was 90%, the “Percent Control” value [4] was 85% and the “Percent Control” value (AMPK-alpha2) was 89%.
